Assays:
[1] = molecular target: OBP13; experiment: competitive fluorescence binding assay; design: species or system Locusta migratoria
[2] = molecular target: OBP13; experiment: fluorescence titration, Scatchard analysis; assay type: binding, Locusta migratoria
[3] = molecular target: Clvs2; experiment: microscale thermophoresis; assay type: binding, Locusta migratoria

Compound: C=Cc1ccc(OC)cc1 [4VA, 4-vinylanisole]
- Ki [1]: 3.46 µM

Compound: c1ccc(Nc2cccc3ccccc23)cc1 [1-NPN, N-phenyl-1-naphthylamine]
- Kd [2]: 13.8 µM

Compound: phosphatidylinositol 4,5-bisphosphate [PI(4,5)P2]
- Kd [3]: 5.86 ± 0.59 µM

Reference: PMC12422182 (Science Advances, 2025)
